The values that follow come from patent publication US20230233671A1, “RNA MOLECULES” (Pfizer Inc., priority 2021, published 2023).

The subject of one data set is Vero cells. Description: VZV gE expression and subcellular localization in Vero cells transfected with VZV RNA constructs (imaging). The format is cell-based, African green monkeys. The following applies: for VZV RNA (Vero cells) MFI: Table 7, VZV gE RNA, see Example 2. The procedure:
Expression of VZV RNA constructs were tested in transfected Vero cells, a kidney epithelial cell culture line derived from African green monkeys. Seeded Vero cells were transfected for 24 hours at 37° C., 5% CO2 with 10 ng, 25 ng, or 50 ng of RNA constructs (Table 5) using MESSENGERMAX™ in accordance with the manufacturer's instructions. Cells were washed three times with PBS+Ca/Mg, and fixed in 4% paraformaldehyde (PFA) for 20 minutes at 25° C. Cells were washed twice with 3% bovine serum albumin (BSA) in PBS+Ca/Mg. Primary and secondary staining antibodies were diluted in 0.1% saponin in goat serum. Cells were stained with a 1:1000 dilution of primary antibody for 1 hour at 37° C., washed three times with PBS+Ca/Mg, and incubated with secondary antibody (1:500) and CELLMASK™ (1:140,000) for 45 minutes at 37° C. Cells were then stained with Dapi (1:15,000-1:20,000) for 15 minutes at 25° C., and washed three times with PBS+Ca/Mg. Cells were analyzed for VZV gE expression and subcellular localization using an Opera PHENIX® Plus High-Content Screening System at 10× or 63× magnification.

The test system of data set [1] is human embryonic kidney (HEK) 293T cells. Description: In vitro expression (IVE) of VZV RNA-LNP vaccines in HEK 293T cells (FACS). The following applies: for VZV RNA-LNPs (293T cells) MFI: Table 7; for VZV RNA-LNPs (293T cells) EC50 (ng/well): Table 7, FIG. 14, input RNA vs percentage of gE-expressing cells, 24 hours. The data set is classed as cell-based. The method, then: In vitro expression (IVE) analyses were conducted to assess the potency of VZV RNA-LNP vaccines. RNA constructs were formulated into LNPs as previously described in Example 3, and a range of input VZV RNA-LNP quantities was transfected into human embryonic kidney (HEK) 293T cells for 24 hours at 37° C., 5% CO2. Transfected cells were washed with DPBS, detached from plate wells using ACCUTASE®, and rinsed with cold PBS. Cells were subjected to live/dead staining, fixation, and permeabilization prior to FACS staining. Fixed and permeabilized cells were incubated with an anti-gE primary antibody (1:1000) for 45 minutes at 2-8° C., washed twice with BD PERM/WASH™ buffer and incubated with a goat anti-human kappa-PE secondary antibody (1:1000) for 30 minutes at 2-8° C. Cells were washed twice with BD PERM/WASH™ buffer, resuspended in 1×FACS buffer, and analyzed on a BD LSRII to determine the proportion of cells expressing VZV gE for each VZV RNA-LNP input. A titration curve was created whereby input RNA quantities were plotted against the percentage of gE-expressing cells to determine the EC50 of each VZV RNA-LNP vaccine.

Another data set relates to VZV gE. Description: Serum VZV gE-binding IgG levels (LUMINEX) in immunized Balb/c mice. The data set is classed as in vivo. The following applies: for Day 28 (GMC), serum gE-binding IgG: 0.5 μg IM Day 0, Day 28 (prime only); for Day 34 (GMC), serum gE-binding IgG: 0.5 μg IM Days 0 and 28, Day 34 (six days after boost); for Day 42 (GMC), serum gE-binding IgG: 0.5 μg IM Days 0 and 28, Day 42 (two weeks after booster). The method, then: VZV RNA-LNP vaccines were tested for their ability to induce IgG and T cell responses in Balb/c mice. 15 mice per group were immunized in accordance with the schedule and specifications in Table 9. Briefly, 15 mice per group were immunized intramuscularly (IM) on Day 0 and boosted IM on Day 28. Mice immunized with SHINGRIX® received 1, 2.5, or 5 μg, corresponding to 1/50, 1/20, and 1/10 of the human clinical dose (50 μg), respectively; mice immunized with gE_WT CO1 received 0.5 or 1 μg; mice immunized with ms3 CO1 received 0.5 μg; mice immunized with ms4 CO1 received 0.5 μg; mice immunized with gE_WT CO2 received 0.5 μg; mice immunized with lyophilized gE_WT CO1 received 0.5 or 1 μg. Saline was administered on Days 0 and 28 to a negative control group. Serum was collected from mice on Days 28 and 42 for characterization of VZV gE-binding IgG levels (LUMINEX® analyses). Spleens were harvested, and sera collected, from five mice in each group on Day 35 for cellular analyses.
Serum IgG levels were determined for each mouse sample using the LUMINEX® platform. Briefly, diluted sera were incubated in the dark in the presence of blocked, recombinant gE protein-bound single-plex microspheres (MAGPLEX® Microspheres, region 79) for 20±4 hours at 2-8° C., 300 rpm. A secondary antibody solution (R-phycoerythrin Conjugated AffiniPure F(ab)′2 Fragment Goat Anti-Mouse IgG F(ab)′2 Fragment Specific) was prepared at 1:250 in LXA-16 buffer. Plates were washed three times in LXA-20 (EIA-7), and secondary antibody was applied to each well of the assay plate. Plates were covered with aluminum sealers and incubated for 2 hours±15 minutes at 25° C., 300 rpm. Plates were washed three times with LXA-20 (EIA-7) buffer, and 100 ul LXA-20 was applied to each well. Plates were covered with aluminum sealers and incubated at 25° C., 300 rpm for a minimum of 4 minutes, or up to 2 hours. Plates were analyzed on a BIO-PLEX® Reader. IgG titers for Day, 28, 34 and 42 are show in Table 10 and FIGS. 17-19.

Consider “ms4 CO1: modRNA construct, ORF SEQ ID NO: 151, full length VZV gE with substitution Y582A”, for which, in the data set with Vero cells, the “VZV RNA (Vero cells) MFI” value is listed as 981. Also, in data set [1], the “VZV RNA-LNPs (293T cells) MFI” value was 1713 and the “VZV RNA-LNPs (293T cells) EC50 (ng/well)” value worked out at 15 ng/well. Besides, in the data set with VZV gE, the “Day 28 (GMC), serum gE-binding IgG” value came to 3.55; the “Day 34 (GMC), serum gE-binding IgG” value amounted to 112.7; the “Day 42 (GMC), serum gE-binding IgG” value is given as 598.57.

In the case of “ms3 CO1: modRNA construct, ORF SEQ ID NO: 149, VZV gE with deletion of aa 547-623, secreted”, the “VZV RNA (Vero cells) MFI” value in the data set with Vero cells amounted to 497. Further, in data set [1], the “VZV RNA-LNPs (293T cells) MFI” value is recorded as 663 and the “VZV RNA-LNPs (293T cells) EC50 (ng/well)” value was found to be 231 ng/well. Further, in the data set with VZV gE, the “Day 28 (GMC), serum gE-binding IgG” value is 3.98; the “Day 34 (GMC), serum gE-binding IgG” value was found to be 29.5; the “Day 42 (GMC), serum gE-binding IgG” value came out at 370.11.

Take “ms8: RNA constructs encoding VZV gE with deletion of the acidic domain aa 588-602 (SEQ ID NO: 6)”: in the data set with Vero cells (Vero cells, 50 ng at 63× and 25 ng at 10× magnification), the “subcellular localization of VZV gE” value is reported as “preferentially within cellular membranes”.
